Experiment [1] has as its system (+)-HA966-induced learning disability. As to the kind of experiment: (+)-HA966-induced learning disability (mouse passive avoidance test). Format: in vivo, male ddY mouse. To be noted: dosed intraperitoneally; step-through latency, p<0.05. An excerpt:
3. (+)-HA966-Induced Learning Disability (Mouse Passive Avoidance Test)
• Animal: male ddY mouse (Nippon SLC; age 7 to 9 weeks at training) was used. 16 to 32 animals were used per one group. <Experimental Procedures> Preparation of Pharmaceutical Drugs • (1) A test compound for oral administration was suspended in aqueous 0.5%methyl cellulose solution, and for intraperitoneal administration was suspended in solution dissolved 0.5% of methyl cellulose solution in saline (hereinafter referred to as 0.5% methyl cellulose solution). The administration volume was 10 ml per 1 kg·body weight. […]
• (1) On day 1 at the learning experiment, the mice were acclimated in an experimental room for one hour or longer. • (2) A test compound or the vehicle was orally or intraperitoneally given. • (3) 20 minutes thereafter, (+)-HA966 was administered at 60 μg intracerebroventriculally. • (4) 15 minutes after the dosing of (+)-HA966, the each mouse was placed in the bright room of the experimental apparatus of the passive avoidance reaction test, where the mouse was left for 30 seconds. […] A significance was determined at p<0.05.

The subject of experiment [2] is ECS-induced learning disability. As to the kind of experiment: Electric convulsion shock (ECS)-induced learning disability (mouse passive avoidance test). Format: in vivo, male ddY mouse. To be noted: dosed intraperitoneally; step-through latency, p<0.05. An excerpt: 4. Electric Convulsion Shock (ECS)—Induced Learning Disability (Mouse Passive Avoidance Test)
With reference to the previous report (Eur J Pharmacology, 321; 273–278, 1997), assessment was done as follows. • Animal: male ddY mouse (Nippon SLC; age 5 weeks at training) was used. 16 animals were used per one group. <Experimental Procedures> Preparation of Chemical Agents A test compound for oral administration was suspended in aqueous 0.5% methyl cellulose solution, and for intraperitoneal administration was suspended in solution dissolved 0.5% of methyl cellulose solution in saline The dose administered was 10 ml per 1 kg·body weight. As a placebo of the test compound, 10 ml of aqueous 0.5% methyl cellulose solution for oral administration and 10 ml of 0.5% methyl cellulose solution in saline for intraperitoneal administration (herein referred to as vehicle) was administrated. […] Test (24 Hours after the Training) • (1) The animals were left in the experimental room for one hour or longer. • (2) After the mice were placed in the bright room and left for 30 seconds, the guillotine door was opened. • (3) The time (step-through latency) required for the mice to cross the sensor of the dark room from the opening of the guillotine door was counted. […] A significance was determined at p<0.05.

SMILES strings stand for the structures.

In the case of `CC(C)c1nnc(-c2ccc(-c3ccccc3)cc2)n1-c1ccccc1F` [Production Example 1, 3-Biphenyl-4-yl-4-(2-fluorophenyl)-5-isopropyl-4H-1,2,4-triazole], the minimum effective dose in experiment [1] is on record as 3 mg/kg; in experiment [2], 10 mg/kg.

The values are drawn from patent US7034047B2, “Triazole derivative” (Astellas Pharma, Inc., priority 2000, dated 2006).
